Experimental data reported in US4983328A, “N-(4-(3-aminopropyl)aminobutyl)-2-(ω-gua nidino-fatty-acid-amido(-2-substituted-ethanamide, salt thereof, and process for preparation thereof” (Bristol-Myers Company, priority 1981, dated 1991).
Converted amounts (≈) assume the structure as drawn. Where two headings read alike, the source gives them in different places.

How the values were obtained:
[1] = chemical stability: retention (%) after heating at 60° C. for 4 hours, by HPLC; format: physicochemical
Method: The chemical stability of the present compound was evaluated by determining the retention (%) after heating at 60° C. for 4 hours. In Table 5 are shown the test results together with those for spergualin as reference. The retention was determined by means of high performance liquid chromatography (HPLC). The column was packed with Nucleosil® 5C18. The solvent used for spergualin was a mixture (6:94) of acetonitrile -0.01M sodium pentanesulfonate +0.01M Na2 HPO4 (pH 3), while that for the compounds of this invention was a mixture of acetonitrile -0.005M sodium pentanesulfonate ±0.01M Na2 HPO4 (pH 3). The mixture ratio in the latter case was varied for each particular compound. For instance, a mixing ratio of 10:90 was used for Compound No. 9, while that of 7:93 for Compound No. 22.

[2] = system: mouse leukemia L-1210 cells; experiment: growth inhibitory activity to cancer cells in vitro (L-1210, 48 hours); format: cell-based; settings: for inhibition at 2.5 µg/mL: L1210, 2.5 mcg/ml; for inhibition at 5 µg/mL: L1210, 5 mcg/ml; for inhibition at 10 µg/mL: L1210, 10 mcg/ml; for inhibition at 20 µg/mL: L1210, 20 mcg/ml; for inhibition at 40 µg/mL: L1210, 40 mcg/ml; for IC50: L1210, L-1210 cells, read-out: 50% inhibitory concentration; for inhibition at 80 µg/mL: L1210, 80 mcg/ml; for inhibition at 160 µg/mL: L1210, 160 mcg/ml
In short: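 L-1210 cells from DBA/2 mouse ascites, cultured at 5×10^4 cells per well in RPMI 1640 with 10% FCS and 5 μM 2-mercaptoethanol, 37° C, CO2, for 48 h with compound. Cell counts by Coulter Counter gave % inhibition (1−T/C)×100, and IC50 was derived across concentrations.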

[3] = acute toxicity in mice (single intraperitoneal administration); settings: mouse, in vivo, ip, read-out: LD50 (median lethal dose on single administration)
Method: In Table 8 median lethal doses (LD50) of typical compounds of this invention are shown, measured in mice upon single intraperitoneal administration, as well as maximum tolerated doses in terms of total dose when a fixed amount per unit body weight was administered intraperitoneally to mice once a day for 6 consecutive days.
*Median lethal dose on single administration.

[4] = cumulative toxicity in mice (maximum tolerated dose, once a day for 6 consecutive days); settings: mouse, in vivo, ip, i.p. once a day for 6 consecutive days, total dose, read-out: Maximum Tolerated Dose (total dose not causing death)
In short: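 Mice dosed intraperitoneally once a day for 6 consecutive days with a fixed amount per unit body weight. The value is the maximum total dose not causing death.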

[5] = system: mouse leukemia L-1210; experiment: therapeutic effect on implanted cancer in mice (L-1210, survival over 30 days); format: in vivo, mouse (BDF1); settings: L1210, ip, 720 h, 6 days; for responders at 1.56 mg/kg / response vs control in vivo at 1.56 mg/kg: 1.56 mg/kg/day i.p.; for responders at 3.13 mg/kg / response vs control in vivo at 3.13 mg/kg: 3.13 mg/kg/day i.p.; for responders at 6.25 mg/kg / response vs control in vivo at 6.25 mg/kg: 6.25 mg/kg/day i.p.; for responders at 12.5 mg/kg / response vs control in vivo at 12.5 mg/kg: 12.5 mg/kg/day i.p.; for responders at 25 mg/kg / response vs control in vivo at 25 mg/kg: 25 mg/kg/day i.p.; for responders at 50 mg/kg / response vs control in vivo at 50 mg/kg: 50 mg/kg/day i.p.
In short: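 Male BDF1 mice aged 5 weeks received an intraperitoneal inoculation of 10^5 L-1210 mouse leukemia cells. Starting on the inoculation day, test compounds dissolved in physiological saline were injected intraperitoneally once daily for 6 consecutive days, and animals were then followed for 30 days to record survival.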

[6] = read-out: Growth inhibition (%), (1-T/C) × 100
[7] = read-out: Number of mice survived for 30 days (converted)
[8] = read-out: Prolongation of survival period (%), T/C × 100

Compound	remaining at 4 h ([1]; pH 2, pH 2)	remaining at 4 h ([1]; pH 4, pH 4)	remaining at 4 h ([1]; pH 5, pH 5)	remaining at 4 h ([1]; pH 6, pH 6)	remaining at 4 h ([1]; pH 7, pH 7)	remaining at 4 h ([1]; pH 8, pH 8)	remaining at 4 h ([1]; pH 9, pH 9)	remaining at 4 h ([1]; pH 10, pH 10)	inhibition at 2.5 µg/mL [2, 6]	inhibition at 5 µg/mL [2, 6]	inhibition at 10 µg/mL [2, 6]	inhibition at 20 µg/mL [2, 6]	inhibition at 40 µg/mL [2, 6]	IC50 [2]	LD50 ([3]; mice, single i.p.)	MTD [4]	remaining at 4 h ([1]; pH 3, pH 3)	inhibition at 80 µg/mL [2, 6]	responders at 6.25 mg/kg [5, 7]	response vs control in vivo at 6.25 mg/kg [5, 8]	also measured
CCCCOC(NC(=O)C[C@@H](O)CCCCNC(=N)N)C(=O)NCCCCNCCCN (stereo partly shown) [Compound 24, N-[4-(3-aminopropyl)aminobutyl]-2-(7-guanidino-3-hydroxyheptanamido)-2-butoxyethanamide]	76.3%	100%	100%	100%	100%	100%	97.1%	94.8%	47.3%	75.6%	89.5%	95%	97.2%	2.6 µg/mL (≈ 5.66 µM)	> 50 mg/kg	> 300 mg/kg	–	–	–	–	–
N=C(N)NCCCCCCC(=O)NC(OCCO)C(=O)NCCCCNCCCN (stereo not shown) [Compound 14, N-[4-(3-aminopropyl)aminobutyl]-2-(7-guanidinoheptanamido)-2-(2-hydroxy)ethoxyethanamide]	71.8%	100%	–	100%	–	100%	97.5%	97.3%	–	22.3%	24.6%	29.9%	42.7%	52 µg/mL (≈ 120 µM)	25 to 50 mg/kg	> 150 mg/kg	90.6%	58.6%	–	–	–
COC(NC(=O)CCCCCCNC(=N)N)C(=O)NCCCCNCCCN (racemic) [Compound 9, N-[4-(3-aminopropyl)aminobutyl]-2-(7-guanidinoheptanamido)-2-methoxyethanamide]	69.3%	100%	100%	100%	100%	100%	97.5%	97.9%	–	35.5%	45.9%	62.3%	78.1%	12 µg/mL (≈ 29.9 µM)	12.5 to 25 mg/kg	> 75 mg/kg	89.3%	90.9%	100%	> 429%	inhibition at 160 µg/mL [2, 6]: 96%; responders at 0.2 mg/kg ([5]; 0.20 mg/kg/day i.p., read-out: Number of mice survived for 30 days (converted)): 0%; response vs control in vivo at 0.2 mg/kg ([5]; 0.20 mg/kg/day i.p., read-out: Prolongation of survival period (%), T/C × 100): 114%; responders at 0.39 mg/kg ([5]; 0.39 mg/kg/day i.p., read-out: Number of mice survived for 30 days (converted)): 0%; response vs control in vivo at 0.39 mg/kg ([5]; 0.39 mg/kg/day i.p., read-out: Prolongation of survival period (%), T/C × 100): 171%; responders at 0.78 mg/kg ([5]; 0.78 mg/kg/day i.p., read-out: Number of mice survived for 30 days (converted)): 50%; response vs control in vivo at 0.78 mg/kg ([5]; 0.78 mg/kg/day i.p., read-out: Prolongation of survival period (%), T/C × 100): > 300%; responders at 1.56 mg/kg [5, 7]: 25%; response vs control in vivo at 1.56 mg/kg [5, 8]: > 411%; responders at 3.13 mg/kg [5, 7]: 100%; response vs control in vivo at 3.13 mg/kg [5, 8]: > 429%; responders at 12.5 mg/kg [5, 7]: 100%; response vs control in vivo at 12.5 mg/kg [5, 8]: > 429%; responders at 25 mg/kg [5, 7]: 0%; response vs control in vivo at 25 mg/kg [5, 8]: 0%; responders at 50 mg/kg [5, 7]: 0%; response vs control in vivo at 50 mg/kg [5, 8]: 0%
N=C(N)NCCCC[C@H](O)CC(=O)NC(OCc1ccccc1)C(=O)NCCCCNCCCN (stereo partly shown) [Compound 26, N-[4-(3-aminopropyl)aminobutyl]-2-(7-guanidino-3-hydroxyheptanamido)-2-benzyloxyethanamide]	77.2%	100%	100%	100%	100%	100%	95.9%	94.5%	54.2%	79%	90.2%	96.6%	97.3%	2.2 µg/mL (≈ 4.46 µM)	–	> 75 mg/kg	–	–	–	–	LD50 [3]: 12.5 to 25 mg/kg
N=C(N)NCCCC[C@H](O)CC(=O)NC(OCCO)C(=O)NCCCCNCCCN (stereo partly shown) [Compound 25, N-[4-(3-aminopropyl)aminobutyl]-2-(7-guanidino-3-hydroxyheptanamido)-2-(2-hydroxy)ethoxyethanamide]	68.9%	100%	100%	100%	100%	100%	97.7%	95.5%	9%	20%	42%	63.5%	74.7%	7.2 µg/mL (≈ 16.1 µM)	–	> 300 mg/kg	–	–	0%	107%	responders at 12.5 mg/kg [5, 7]: 0%; response vs control in vivo at 12.5 mg/kg [5, 8]: 193%; responders at 25 mg/kg [5, 7]: 0%; response vs control in vivo at 25 mg/kg [5, 8]: 229%; responders at 50 mg/kg [5, 7]: 100%; response vs control in vivo at 50 mg/kg [5, 8]: > 429%; LD50 [3]: > 50 mg/kg
N=C(N)NCCCCCCC(=O)NC(OCc1ccccc1)C(=O)NCCCCNCCCN (stereo not shown) [Compound 15, N-[4-(3-aminopropyl)aminobutyl]-2-(7-guanidinoheptanamido)-2-benzyloxyethanamide]	76.5%	100%	–	100%	–	100%	99%	96.2%	39%	71%	94.5%	97.7%	100%	3.1 µg/mL (≈ 6.49 µM)	12.5 to 25 mg/kg	> 75 mg/kg	91.4%	–	–	–	inhibition at 1.25 µg/mL ([2]; L1210, 1.25 mcg/ml, read-out: Growth inhibition (%), (1-T/C) × 100): 27.1%
N=C(N)NCCCCCCCC(=O)NC(O)C(=O)NCCCCNCCCN (stereo not shown) [Compound 5, N-[4-(3-aminopropyl)aminobutyl]-2-(8-guanidinooctanamido)-2-hydroxyethanamide]	–	–	–	–	–	–	–	–	24.9%	29.1%	40%	54.2%	66%	18 µg/mL (≈ 44.8 µM)	25 to 50 mg/kg	> 150 mg/kg	–	88.5%	0%	125%	inhibition at 160 µg/mL [2, 6]: 96.8%; responders at 1.56 mg/kg [5, 7]: 0%; response vs control in vivo at 1.56 mg/kg [5, 8]: 104%; responders at 3.13 mg/kg [5, 7]: 0%; response vs control in vivo at 3.13 mg/kg [5, 8]: 118%; responders at 12.5 mg/kg [5, 7]: 0%; response vs control in vivo at 12.5 mg/kg [5, 8]: 181%; responders at 25 mg/kg [5, 7]: 0%; response vs control in vivo at 25 mg/kg [5, 8]: 306%; responders at 50 mg/kg [5, 7]: 0%; response vs control in vivo at 50 mg/kg [5, 8]: 0%
